ChEMBL document CHEMBL1201862, “PubChem BioAssay data set” (2004)
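Assay format: 96-well plates, 48-hour exposure. GI50 is the concentration that inhibits growth by half.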 Activity calls are given as the source filed them. Rule as the data show it: active = GI50 up to about 1.1 µM and inactive = higher.

Key:
Assay in all cases: NCI tumour cell line growth inhibition, 48 h
786-0 = test system: 786-0
A498 = test system: A498
BT-549 = test system: BT-549
CAKI-1 = test system: CAKI-1
HCT-116 = test system: HCT-116
Hs-578T = test system: Hs-578T
MCF7 = test system: MCF7
MDA-N = test system: MDA-N
Malme-3M = test system: Malme-3M
OVCAR-4 = test system: OVCAR-4
SF-295 = test system: SF-295
SK-MEL-28 = test system: SK-MEL-28
SK-MEL-2 = test system: SK-MEL-2
SNB-19 = test system: SNB-19
T47D = test system: T47D
U-251 = test system: U-251
UACC-257 = test system: UACC-257
UACC-62 = test system: UACC-62
NCI-H226 = test system: NCI-H226

Measured: GI50

CCOC(=O)Nc1ccc(S(=O)(=O)Nn2cnnc2)cc1
inactive: 786-0 46.5 µM | A498 27.2 µM | BT-549 53.5 µM | CAKI-1 47.1 µM | HCT-116 30.1 µM | Hs-578T 57.9 µM | MCF7 41.2 µM | MDA-N 22 µM | Malme-3M 44.3 µM | OVCAR-4 17.5 µM | SF-295 31.5 µM | SK-MEL-28 42.8 µM | SK-MEL-2 72.6 µM | SNB-19 > 100 µM | T47D > 100 µM | U-251 44.3 µM | UACC-257 > 100 µM | UACC-62 33.8 µM

Cc1cnc2c(c1)C(=O)N(c1ccc(Oc3ccccc3)cc1)S2(=O)=O
inactive: 786-0 > 100 µM | BT-549 > 100 µM | CAKI-1 > 100 µM | HCT-116 > 100 µM | Hs-578T > 100 µM | MCF7 > 100 µM | MDA-N > 100 µM | Malme-3M 67.1 µM | NCI-H226 59.6 µM | OVCAR-4 83.8 µM | SF-295 > 100 µM | SK-MEL-28 > 100 µM | SK-MEL-2 > 100 µM | SNB-19 > 100 µM | T47D > 100 µM | U-251 > 100 µM | UACC-257 > 100 µM | UACC-62 > 100 µM

CC(C)(C)[Si](C)(C)OCCCCC1CC2(S(=O)(=O)C3=CC=C=C=C3)ON1CC2S(=O)(=O)c1ccccc1 (stereo not drawn)
inactive: 786-0 > 100 µM | A498 > 100 µM | BT-549 > 100 µM | HCT-116 > 100 µM | Hs-578T > 100 µM | MCF7 > 100 µM | MDA-N > 100 µM | NCI-H226 > 100 µM | OVCAR-4 > 100 µM | SK-MEL-28 > 100 µM | SK-MEL-2 > 100 µM | SNB-19 > 100 µM | T47D > 100 µM | U-251 > 100 µM | UACC-257 84.9 µM | UACC-62 > 100 µM

C[N+](C)(C)c1ncnc2c1ncn2C1CCCCO1 (stereo not drawn)
inactive: 786-0 > 100 µM | A498 > 100 µM | BT-549 > 100 µM | CAKI-1 > 100 µM | HCT-116 > 100 µM | Hs-578T > 100 µM | MCF7 > 100 µM | MDA-N > 100 µM | Malme-3M > 100 µM | OVCAR-4 > 100 µM | SF-295 > 100 µM | SK-MEL-28 > 100 µM | SK-MEL-2 > 100 µM | SNB-19 > 100 µM | T47D > 100 µM | U-251 > 100 µM | UACC-257 > 100 µM | UACC-62 > 100 µM

COC1CC(OC2C(C)OC(OC3C(C)OC(OC4C(C)OC(O[C@H]5CC[C@@]6(C)C(=CC[C@]7(O)[C@@H]6C[C@@H](OC(=O)/C=C/c6ccccc6)[C@@]6(C)[C@]7(O)CC[C@@]6(O)C(C)=O)C5)CC4OC)CC3OC)CC2OC)OC(C)C1O (stereo partly drawn)
inactive: 786-0 > 12.5 µM | BT-549 > 12.5 µM | CAKI-1 > 12.5 µM | HCT-116 > 12.5 µM | Hs-578T > 12.5 µM | MCF7 > 12.5 µM | MDA-N > 12.5 µM | Malme-3M > 12.5 µM | NCI-H226 > 12.5 µM | OVCAR-4 > 12.5 µM | SF-295 > 12.5 µM | SK-MEL-28 > 12.5 µM | SK-MEL-2 > 12.5 µM | SNB-19 > 12.5 µM | T47D > 12.5 µM | U-251 > 12.5 µM | UACC-257 > 12.5 µM | UACC-62 > 12.5 µM

CCOC(=O)CC(C)C(C#N)(OP1(=O)OC(c2ccccc2)C(C)N1C)c1ccccc1 (stereo not drawn)
inactive: 786-0 77.8 µM | A498 65.3 µM | BT-549 55.1 µM | CAKI-1 81.5 µM | HCT-116 50.2 µM | Hs-578T 83.6 µM | MCF7 37.8 µM | MDA-N > 100 µM | Malme-3M 85.1 µM | SF-295 46.9 µM | SK-MEL-28 81.7 µM | SK-MEL-2 34.1 µM | SNB-19 99.1 µM | T47D 30.5 µM | U-251 49 µM | UACC-257 41.3 µM | UACC-62 58.7 µM

Cc1cc(=O)nc(S(=O)(=O)NC(=O)Nc2cccc(Cl)c2)[nH]1
inactive: 786-0 > 100 µM | A498 > 100 µM | BT-549 > 100 µM | HCT-116 > 100 µM | Hs-578T > 100 µM | MCF7 > 100 µM | MDA-N > 100 µM | Malme-3M > 100 µM | NCI-H226 > 100 µM | SF-295 16.2 µM | SK-MEL-28 > 100 µM | SK-MEL-2 > 100 µM | SNB-19 > 100 µM | T47D > 88.5 µM | U-251 97.3 µM | UACC-257 > 100 µM | UACC-62 > 100 µM

O=C1N/C(=N\C2CCCCC2)C2(CCN(CCCC3(c4ccc(F)cc4)OCCO3)CC2)N1c1ccccc1
inactive: 786-0 16.6 µM | BT-549 4.61 µM | CAKI-1 22.8 µM | HCT-116 12.2 µM | Hs-578T 14.4 µM | MCF7 21.2 µM | MDA-N 15.4 µM | Malme-3M 16.7 µM | NCI-H226 23.1 µM | OVCAR-4 18.5 µM | SF-295 19.9 µM | SK-MEL-28 18.6 µM | SK-MEL-2 16 µM | SNB-19 18.5 µM | T47D 17 µM | U-251 15.9 µM | UACC-257 15.1 µM | UACC-62 > 10 µM

N#Cc1cc2cc3c4c(c2oc1=O)CCCN4CCC3
inactive: 786-0 > 100 µM | A498 > 100 µM | BT-549 > 100 µM | CAKI-1 > 100 µM | HCT-116 > 100 µM | Hs-578T > 100 µM | MCF7 > 100 µM | MDA-N > 100 µM | NCI-H226 > 100 µM | OVCAR-4 > 100 µM | SF-295 > 100 µM | SK-MEL-28 > 100 µM | SK-MEL-2 > 100 µM | SNB-19 > 100 µM | T47D > 100 µM | U-251 > 100 µM | UACC-257 > 100 µM | UACC-62 > 100 µM

OCCNc1nc2c(N3CCCC3)nc(N3CCNCC3)nc2nc1NCc1ccccc1
inactive: 786-0 14.8 µM | BT-549 16.4 µM | CAKI-1 16.2 µM | HCT-116 10.1 µM | Hs-578T 20.3 µM | MCF7 14.3 µM | MDA-N 11.9 µM | Malme-3M 19.6 µM | NCI-H226 16.3 µM | OVCAR-4 17.3 µM | SF-295 17.6 µM | SK-MEL-28 17.5 µM | SK-MEL-2 15 µM | SNB-19 15.8 µM | T47D 12.5 µM | U-251 11.1 µM | UACC-257 17.3 µM | UACC-62 17.3 µM

c1ccc(N2N=C3N(c4ccccc4)C2N3c2ccccc2)cc1
inactive: A498 33.1 µM | BT-549 68.2 µM | CAKI-1 88.7 µM | HCT-116 31.3 µM | Hs-578T 57.7 µM | MCF7 31.9 µM | MDA-N 19.4 µM | Malme-3M 17.5 µM | OVCAR-4 35.6 µM | SF-295 36.1 µM | SK-MEL-28 19.1 µM | SK-MEL-2 24.3 µM | SNB-19 87.1 µM | T47D 52.4 µM | U-251 46.8 µM | UACC-257 23.1 µM | UACC-62 25.6 µM
